Measurements published in ChEMBL document CHEMBL1909046, “DrugMatrix in vitro pharmacology data”.

What was measured:
Leukotriene C4 synthase = target: T1, Leukotriene C4 synthase (Cavia porcellus, UniProt A6XA80); assay: biochemical; format: tissue-based, Lung;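 further: enzyme inhibition assay of leukotriene C4 synthase, using LTA4 as the substrate; in other assays of this panel Not Active means under 50% inhibition at 10 µM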
T1 sequence (A6XA80 whole entry): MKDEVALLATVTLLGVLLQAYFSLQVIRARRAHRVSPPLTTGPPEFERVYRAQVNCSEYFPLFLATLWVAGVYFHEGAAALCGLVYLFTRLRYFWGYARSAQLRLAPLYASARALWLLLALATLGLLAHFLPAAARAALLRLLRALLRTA

Caspase-1 = target: T2, Caspase-1 (Homo sapiens, UniProt P29466); parameters: species or system Escherichia coli;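 further: Caspase-1 enzyme inhibition assay with a peptide substrate; in other assays of this panel Not Active means under 50% inhibition at 10 µM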
T2 sequence (P29466 whole entry): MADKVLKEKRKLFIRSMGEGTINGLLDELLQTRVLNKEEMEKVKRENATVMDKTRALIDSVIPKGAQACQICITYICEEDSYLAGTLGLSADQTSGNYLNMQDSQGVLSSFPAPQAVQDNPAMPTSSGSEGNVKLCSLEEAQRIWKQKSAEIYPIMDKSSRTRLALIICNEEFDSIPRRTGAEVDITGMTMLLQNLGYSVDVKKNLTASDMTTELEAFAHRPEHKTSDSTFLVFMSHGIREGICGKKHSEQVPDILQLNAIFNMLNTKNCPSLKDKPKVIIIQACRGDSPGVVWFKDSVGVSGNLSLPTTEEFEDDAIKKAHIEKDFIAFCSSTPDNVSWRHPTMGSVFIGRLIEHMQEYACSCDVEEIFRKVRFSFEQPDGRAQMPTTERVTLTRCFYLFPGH

[1] = target: T3, Muscarinic acetylcholine receptor M2 (Homo sapiens, UniProt P08172); format: cell membranes, CHO-K1, Membrane; settings: cho-k1; further: in other assays of this panel Not Active means under 50% inhibition at 10 µM
T3 sequence (P08172 whole entry): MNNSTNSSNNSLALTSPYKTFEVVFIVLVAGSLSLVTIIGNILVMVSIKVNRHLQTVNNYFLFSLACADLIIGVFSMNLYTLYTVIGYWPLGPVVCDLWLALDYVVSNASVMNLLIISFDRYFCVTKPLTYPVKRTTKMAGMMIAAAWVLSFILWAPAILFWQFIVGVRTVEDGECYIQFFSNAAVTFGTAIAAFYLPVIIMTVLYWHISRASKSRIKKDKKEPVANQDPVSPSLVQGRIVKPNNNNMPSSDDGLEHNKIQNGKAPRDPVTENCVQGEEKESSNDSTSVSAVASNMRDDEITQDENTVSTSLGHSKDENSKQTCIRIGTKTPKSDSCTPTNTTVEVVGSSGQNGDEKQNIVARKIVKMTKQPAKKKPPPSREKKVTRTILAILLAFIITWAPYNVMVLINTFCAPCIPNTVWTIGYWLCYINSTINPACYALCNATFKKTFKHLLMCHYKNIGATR

Melanocortin receptor 4 = Melanocortin receptor 4 (Homo sapiens, UniProt P32245); format: cell membranes, Membrane; settings: hek293; further: in other assays of this panel Not Active means under 50% inhibition at 10 µM
Melanocortin receptor 4, sequence (P32245 whole entry): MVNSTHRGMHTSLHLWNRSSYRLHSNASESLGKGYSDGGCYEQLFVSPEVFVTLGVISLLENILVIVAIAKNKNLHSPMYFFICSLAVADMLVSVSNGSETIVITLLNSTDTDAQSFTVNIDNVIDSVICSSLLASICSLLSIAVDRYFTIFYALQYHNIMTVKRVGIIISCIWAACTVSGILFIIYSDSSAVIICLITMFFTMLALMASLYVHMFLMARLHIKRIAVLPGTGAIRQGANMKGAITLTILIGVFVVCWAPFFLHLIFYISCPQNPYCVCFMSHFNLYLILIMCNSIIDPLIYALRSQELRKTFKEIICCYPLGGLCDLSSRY

[2] = target: Protein phosphatase 3 catalytic subunit alpha (Homo sapiens, UniProt Q08209); parameters: species or system Escherichia coli
[3] = DRUGMATRIX: Purinergic P2X radioligand binding (ligand: [3H] alpha, beta-Methylene-ATP); format: cell membranes, Oryctolagus cuniculus, New Zealand albino, Urinary bladder, Membrane; settings: Not Active = under 50% inhibition at 10 µM
[4] = DRUGMATRIX: Calcium Channel Type L, Dihydropyridine radioligand binding (ligand: [3H] Nitrendipine); format: cell membranes, Rattus norvegicus, Wistar, Cerebral cortex, Membrane; settings: Not Active = under 50% inhibition at 10 µM
Cytochrome P450 2A6 = target: T4, Cytochrome P450 2A6 (Homo sapiens, UniProt P11509); settings: bti-tn-5b1-4; further: in other assays of this panel Not Active means under 50% inhibition at 10 µM
T4 sequence (P11509 whole entry): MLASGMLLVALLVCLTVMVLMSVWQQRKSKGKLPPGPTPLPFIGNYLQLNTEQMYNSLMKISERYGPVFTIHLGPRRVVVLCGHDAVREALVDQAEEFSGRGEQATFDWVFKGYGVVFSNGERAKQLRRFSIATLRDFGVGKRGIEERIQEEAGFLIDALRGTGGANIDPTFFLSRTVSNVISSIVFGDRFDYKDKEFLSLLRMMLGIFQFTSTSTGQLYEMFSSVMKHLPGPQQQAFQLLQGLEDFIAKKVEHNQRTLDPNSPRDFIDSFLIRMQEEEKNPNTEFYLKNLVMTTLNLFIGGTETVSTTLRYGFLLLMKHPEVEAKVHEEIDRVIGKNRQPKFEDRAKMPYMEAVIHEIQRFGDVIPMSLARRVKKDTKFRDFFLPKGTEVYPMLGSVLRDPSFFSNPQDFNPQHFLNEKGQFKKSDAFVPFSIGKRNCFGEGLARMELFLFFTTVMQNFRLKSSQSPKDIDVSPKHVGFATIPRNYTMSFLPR

C[N+](C)(C)CCOC(N)=O.[Cl-] [CARBACHOL]
Not Active: IC50 (Leukotriene C4 synthase) | IC50 (Caspase-1) | IC50 [1] | IC50 (Melanocortin receptor 4) | IC50 [2] | IC50 [3] | Ki [3] | IC50 [4] | Ki [4] | IC50 (Cytochrome P450 2A6) | Ki (Cytochrome P450 2A6)

C[C@]12CC[C@@H](O)C[C@@H]1CC[C@@H]1[C@@H]2CC[C@]2(C)C(=O)CC[C@@H]12 [ANDROSTERONE]
Not Active: IC50 (Leukotriene C4 synthase) | IC50 (Caspase-1) | IC50 [1] | IC50 (Melanocortin receptor 4) | IC50 [2] | IC50 [3] | Ki [3] | IC50 [4] | Ki [4] | IC50 (Cytochrome P450 2A6) | Ki (Cytochrome P450 2A6)

C[C@H](C(=O)O)c1ccc2oc(-c3ccc(F)cc3)nc2c1 [FLUNOXAPROFEN]
Not Active: IC50 (Leukotriene C4 synthase) | IC50 (Caspase-1) | IC50 [1] | IC50 (Melanocortin receptor 4) | IC50 [2] | IC50 [3] | Ki [3] | IC50 [4] | Ki [4] | IC50 (Cytochrome P450 2A6) | Ki (Cytochrome P450 2A6)

COPPER(II) OXIDE
Not Active: IC50 (Leukotriene C4 synthase) | Ki (Leukotriene C4 synthase) | IC50 (Caspase-1) | Ki (Caspase-1) | IC50 [1] | Ki [1] | IC50 (Melanocortin receptor 4) | Ki (Melanocortin receptor 4) | IC50 [2] | Ki [2] | IC50 [3] | Ki [3] | IC50 [4] | Ki [4] | IC50 (Cytochrome P450 2A6) | Ki (Cytochrome P450 2A6)

NC(=O)CN1CCCC1=O
Not Active: IC50 (Leukotriene C4 synthase) | IC50 (Caspase-1) | IC50 [1] | IC50 (Melanocortin receptor 4) | IC50 [2] | IC50 [3] | Ki [3] | IC50 [4] | Ki [4] | IC50 (Cytochrome P450 2A6) | Ki (Cytochrome P450 2A6)

O=C1c2ccccc2C(=O)C1c1ccccc1 [PHENINDIONE]
Not Active: IC50 (Leukotriene C4 synthase) | IC50 (Caspase-1) | IC50 [1] | IC50 (Melanocortin receptor 4) | IC50 [2] | IC50 [3] | Ki [3] | IC50 [4] | Ki [4] | IC50 (Cytochrome P450 2A6) | Ki (Cytochrome P450 2A6)

CCN1C[C@]2(COC)[C@H](O)C[C@H](OC)[C@@]34[C@@H]5C[C@@]6(O)[C@H](OC(=O)c7ccccc7)[C@@H]5[C@@](OC(C)=O)([C@@H]([C@H](OC)[C@H]23)[C@@H]14)[C@@H](O)[C@@H]6OC [ACONITINE]
Not Active: IC50 (Leukotriene C4 synthase) | IC50 (Caspase-1) | IC50 [1] | IC50 (Melanocortin receptor 4) | IC50 [2] | IC50 [3] | Ki [3] | IC50 [4] | Ki [4] | IC50 (Cytochrome P450 2A6) | Ki (Cytochrome P450 2A6)

O=C(NCCN1CCOCC1)c1ccc(Cl)cc1 [MOCLOBEMIDE]
Not Active: IC50 (Leukotriene C4 synthase) | IC50 (Caspase-1) | IC50 [1] | IC50 (Melanocortin receptor 4) | IC50 [2] | IC50 [3] | Ki [3] | IC50 [4] | Ki [4] | IC50 (Cytochrome P450 2A6) | Ki (Cytochrome P450 2A6)

O=C(O)COC(=O)Cc1ccccc1Nc1c(Cl)cccc1Cl [ACECLOFENAC]
Not Active: IC50 (Leukotriene C4 synthase) | IC50 (Caspase-1) | IC50 [1] | IC50 (Melanocortin receptor 4) | IC50 [2] | IC50 [3] | Ki [3] | IC50 [4] | Ki [4] | IC50 (Cytochrome P450 2A6) | Ki (Cytochrome P450 2A6)

COc1cc(/C=C/C(=O)O)ccc1O [FERULATE]
Not Active: IC50 (Leukotriene C4 synthase) | IC50 (Caspase-1) | IC50 [1] | IC50 (Melanocortin receptor 4) | IC50 [2] | IC50 [3] | Ki [3] | IC50 [4] | Ki [4] | IC50 (Cytochrome P450 2A6) | Ki (Cytochrome P450 2A6)

O=c1[nH]c2ccccc2c2ccccc12
Not Active: IC50 (Leukotriene C4 synthase) | IC50 (Caspase-1) | IC50 [1] | IC50 (Melanocortin receptor 4) | IC50 [2] | IC50 [3] | Ki [3] | IC50 [4] | Ki [4] | IC50 (Cytochrome P450 2A6) | Ki (Cytochrome P450 2A6)

COc1ccc(C[C@H](N)C(=O)N[C@H]2[C@@H](O)[C@H](n3cnc4c(N(C)C)ncnc43)O[C@@H]2CO)cc1 [PUROMYCIN]
Not Active: IC50 (Leukotriene C4 synthase) | IC50 (Caspase-1) | IC50 [1] | IC50 (Melanocortin receptor 4) | IC50 [2] | IC50 [3] | Ki [3] | IC50 [4] | Ki [4] | IC50 (Cytochrome P450 2A6) | Ki (Cytochrome P450 2A6)

NC(=O)NC(=O)Cc1ccccc1 [PHENACEMIDE]
Not Active: IC50 (Leukotriene C4 synthase) | IC50 (Caspase-1) | IC50 [1] | IC50 (Melanocortin receptor 4) | IC50 [2] | IC50 [3] | Ki [3] | IC50 [4] | Ki [4] | IC50 (Cytochrome P450 2A6) | Ki (Cytochrome P450 2A6)

O=C(O)CNCP(=O)(O)O [GLYPHOSATE]
Not Active: IC50 (Leukotriene C4 synthase) | IC50 (Caspase-1) | IC50 [1] | IC50 (Melanocortin receptor 4) | IC50 [2] | IC50 [3] | Ki [3] | IC50 [4] | Ki [4]
